The conditions of data set [1]: 101 kPa, Liquid, Pycnometric method.
Data set [2] in a line: xn = mol fraction of the nth substance listed. Conditions: 101 kPa, Liquid, Pycnometric method, x1 = 1.

± gives the expanded uncertainty stated by the source.

Consider `C=CC(=O)OC(C)(C)C` [tert-butyl acrylate], for which the mass density (commonly the mass of a sample divided by its volume) in data set [1] (293.15 K) came out at 884.13 ± 1 kg/m3; in data set [1] (298.15 K), 879.66 ± 1 kg/m3; in data set [1] (303.15 K), 875.2 ± 1 kg/m3; in data set [1] (308.15 K), 870.74 ± 1 kg/m3; in data set [1] (313.15 K) it was 866.28 ± 1 kg/m3; in data set [1] (318.15 K) it was 861.82 ± 1 kg/m3.
Regarding `C1CCOC1` [tetrahydrofuran], the mass density worked out at 887.01 ± 1 kg/m3 in data set [1] (293.15 K); 882.05 ± 1 kg/m3 in data set [1] (298.15 K); 877.1 ± 1 kg/m3 in data set [1] (303.15 K); 872.14 ± 1 kg/m3 in data set [1] (308.15 K); 867.19 ± 1 kg/m3 in data set [1] (313.15 K); 862.23 ± 1 kg/m3 in data set [1] (318.15 K).
Consider `C1CCOC1` [tetrahydrofuran] + C=CC(=O)OC, for which the mass density in data set [2] (293.15 K) came out at 887.01 ± 1 kg/m3; in data set [2] (298.15 K), 882.05 ± 1 kg/m3; in data set [2] (303.15 K) it was 877.1 ± 1 kg/m3; in data set [2] (308.15 K), 872.14 ± 1 kg/m3; in data set [2] (313.15 K), 867.19 ± 1 kg/m3; in data set [2] (318.15 K), 862.23 ± 1 kg/m3.
Take `C1CCOC1` [tetrahydrofuran] + C=CC(=O)OC(C)(C)C: the mass density in data set [2] (293.15 K) was determined as 887.01 ± 1 kg/m3; in data set [2] (298.15 K), 882.05 ± 1 kg/m3; in data set [2] (303.15 K), 877.1 ± 1 kg/m3; in data set [2] (308.15 K) it was 872.14 ± 1 kg/m3; in data set [2] (313.15 K), 867.19 ± 1 kg/m3; in data set [2] (318.15 K) it was 862.23 ± 1 kg/m3.
For the compound `C1CCOC1` [tetrahydrofuran] + C=CC(=O)OCC, the mass density is listed as 887.01 ± 1 kg/m3 in data set [2] (293.15 K); 882.05 ± 1 kg/m3 in data set [2] (298.15 K); 877.1 ± 1 kg/m3 in data set [2] (303.15 K); 872.14 ± 1 kg/m3 in data set [2] (308.15 K); 867.19 ± 1 kg/m3 in data set [2] (313.15 K); 862.23 ± 1 kg/m3 in data set [2] (318.15 K).
As for `C1CCOC1` [tetrahydrofuran] + C=CC(=O)OCCCC, the mass density stood at 887.01 ± 1 kg/m3 in data set [2] (293.15 K); 882.05 ± 1 kg/m3 in data set [2] (298.15 K); 877.1 ± 1 kg/m3 in data set [2] (303.15 K); 872.14 ± 1 kg/m3 in data set [2] (308.15 K); 867.19 ± 1 kg/m3 in data set [2] (313.15 K); 862.23 ± 1 kg/m3 in data set [2] (318.15 K).

These data come from the NIST ThermoML archive (doi:10.1016/j.jct.2016.10.042).
